The values below come from US20120201915A1, “THERAPEUTIC COMPOSITION” (priority 2009, published 2012).

This experiment relates to contact dermatitis from poison sumac. The experiment is described as follows: Case-study: contact dermatitis from poison sumac. Format: in vivo, human. The following applies: used by the patient before Composition I. The source says:
In one case-study, a patient had contact dermatitis from poison sumac which was on the volar surfaces of both arms from the hand to the elbow. […] They continued application of the Composition I, TID (three daily doses), and by four days, their skin had healed.

With `C[C@]12CCC(=O)C=C1CC[C@@H]1[C@@H]2C(=O)C[C@@]2(C)[C@H]1CC[C@]2(O)C(=O)CO` [cortisone], the “relief from earlier topical treatments” value is “without relief”.
